# Experimental data: patent EP0220153B1, “A nutritive emulsion having oxygen-transporting properties, and process for its preparation” (Kabi Pharmacia AB, priority 1985, dated 1987)
# Assay: acute toxicity test on mice
# Details: mouse, in vivo, other: injected, injected as emulsion of example 1 composition, observation time 72 hours, expressed for perfluorodecalin
# Description: An emulsion of the same composition and prepared in the same way as in example 1 was tested on mice for acute toxicity. Observation time was 72 hours.
# It appears that the acute toxicity (LD₅₀) will be just below 30 g/kg for perfluorodecalin. Owing to the great volumes that were injected, it cannot be excluded that changes in liquid and electrolyte balance have affected the results and that, therefore, an examination of this kind not solely reflects the toxicity of the fluorocarbon compound; however, the indicated value of 30 g/kg is of such a magnitude that the preparation can be regarded as non-toxic.
smiles,measurement,value
FC1(F)C(F)(F)C(F)(F)C2(F)C(F)(F)C(F)(F)C(F)(F)C(F)(F)C2(F)C1(F)F (stereo not shown) [perfluorodecalin],LD50 at 72 h,< 30000 mg/kg
